Experimental data from US12209087B2, “AKT1 modulators” (Alterome Therapeutics, Inc., priority 2022, dated 2025).
pIC50: −log10 of the molar value.

molecular target: T1, full length AKT E17K (Homo sapiens, UniProt P31749, E17K); test: NanoBRET Target Engagement (TE) Assay; type: cell-based; details: competitive displacement of tracer in cells, read-out: AKT1 E17K IC50
T1 construct: host or cells: HEK-293 (ATCC CRL-1573)
Procedure, shortened: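 Compound and tracer incubated 2 h before luminescence at donor 450 nm and acceptor 600 nm, with extracellular signal inhibited. EC50 by sigmoidal variable-slope regression.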

T1 sequence (P31749 whole entry E17K): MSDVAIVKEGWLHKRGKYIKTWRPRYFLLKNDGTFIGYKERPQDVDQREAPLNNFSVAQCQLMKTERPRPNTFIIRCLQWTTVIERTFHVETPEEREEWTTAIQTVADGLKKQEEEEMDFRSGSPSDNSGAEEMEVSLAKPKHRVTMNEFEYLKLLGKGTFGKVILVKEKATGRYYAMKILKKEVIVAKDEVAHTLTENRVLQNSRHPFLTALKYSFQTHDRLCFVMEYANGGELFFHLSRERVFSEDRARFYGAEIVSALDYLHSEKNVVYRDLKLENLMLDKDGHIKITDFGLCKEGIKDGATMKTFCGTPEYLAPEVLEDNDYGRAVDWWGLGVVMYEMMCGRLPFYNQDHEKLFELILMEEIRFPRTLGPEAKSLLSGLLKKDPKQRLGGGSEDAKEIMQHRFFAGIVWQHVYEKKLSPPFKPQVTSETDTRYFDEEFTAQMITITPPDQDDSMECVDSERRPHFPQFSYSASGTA

Row | Compound | pIC50
1 | N#Cc1nccc(N2CCN(Cc3ccc(-n4c(-c5cccnc5N)nc5ccc(-c6ccncc6C#N)nc54)cc3)CC2)n1 [Example 399, 4-(4-(4-(2-(2-Aminopyridin-3-yl)-5-(3-cyanopyridin-4-yl)-3H-imidazo[4,5-b]pyridin-3-yl)benzyl)piperazin-1-yl)pyrimidine-2-carbonitrile] | 7.22 to 7.82
2 | N#Cc1nccc(NC2CCN(Cc3ccc(-n4c(-c5cccnc5N)nc5ccc(-n6nccn6)nc54)cc3)CC2)n1 [Example 592, 4-((1-(4-(2-(2-Aminopyridin-3-yl)-5-(2H-1,2,3-triazol-2-yl)-3H-imidazo[4,5-b]pyridin-3-yl)benzyl)piperidin-4-yl)amino)pyrimidine-2-carbonitrile] | > 7.82
3 | Cc1nn(C)nc1-c1ccc2nc(-c3nccnc3N)n(-c3ccc(CN4CCC(Nc5ccnc(C#N)n5)CC4)cc3)c2n1 [Example 635, 4-((1-(4-(2-(3-Aminopyrazin-2-yl)-5-(2,5-dimethyl-2H-1,2,3-triazol-4-yl)-3H-imidazo[4,5-b]pyridin-3-yl)benzyl)piperidin-4-yl)amino)pyrimidine-2-carbonitrile] | 7.22 to 7.82
4 | Cn1nccc1-c1ccc2nc(-c3cccnc3N)n(-c3ccc(CN4CCC(Nc5ccnc(C#N)n5)CC4)cc3)c2n1 [Example 467, 4-((1-(4-(2-(2-Aminopyridin-3-yl)-5-(1-methyl-1H-pyrazol-5-yl)-3H-imidazo[4,5-b]pyridin-3-yl)benzyl)piperidin-4-yl)amino)pyrimidine-2-carbonitrile] | > 7.82
5 | N#Cc1nccc(NC2CCN(Cc3ccc(-n4c(-c5nccnc5N)nc5ccc(-c6cnn(CF)n6)nc54)cc3)CC2)n1 [Example 627, 4-((1-(4-(2-(3-Aminopyrazin-2-yl)-5-(2-(fluoromethyl)-2H-1,2,3-triazol-4-yl)-3H-imidazo[4,5-b]pyridin-3-yl)benzyl)piperidin-4-yl)amino)pyrimidine-2-carbonitrile] | > 7.82
6 | CC(=O)N(C)C1CCN(c2cccc(-c3ccc4nc(-c5cccnc5N)n(-c5ccc(CN6CCC(Nc7ccnc(C#N)n7)CC6)cc5)c4n3)c2)CC1 [Example 522, N-(1-(3-(2-(2-Aminopyridin-3-yl)-3-(4-((4-((2-cyanopyrimidin-4-yl)amino)piperidin-1-yl)methyl)phenyl)-3H-imidazo[4,5-b]pyridin-5-yl)phenyl)piperidin-4-yl)-N-methylacetamide] | 7.22 to 7.82
7 | COc1ccncc1-c1ccc2nc(-c3cccnc3N)n(-c3ccc(CN4CCC(Nc5ccnc(C#N)n5)CC4)cc3)c2n1 [Example 536, 4-((1-(4-(2-(2-Aminopyridin-3-yl)-5-(4-methoxypyridin-3-yl)-3H-imidazo[4,5-b]pyridin-3-yl)benzyl)piperidin-4-yl)amino)pyrimidine-2-carbonitrile] | > 7.82
8 | [2H]C([2H])([2H])Oc1ccc(-c2ccc3nc(-c4nccnc4N)n(-c4ccc(CN5CCC(Nc6ccnc(C#N)n6)CC5)cc4)c3n2)cn1 [Example 637, 4-((1-(4-(2-(3-aminopyrazin-2-yl)-5-(6-(methoxy-d3)pyridin-3-yl)-3H-imidazo[4,5-b]pyridin-3-yl)benzyl)piperidin-4-yl)amino)pyrimidine-2-carbonitrile] | > 7.82
9 | N#Cc1nccc(NC2CC3(C2)CN(Cc2ccc(-n4c(-c5cccnc5N)nc5ccc(-c6ccc(F)cc6)nc54)cc2)C3)n1 [Example 445, 4-((2-(4-(2-(2-Aminopyridin-3-yl)-5-(4-fluorophenyl)-3H-imidazo[4,5-b]pyridin-3-yl)benzyl)-2-azaspiro[3.3]heptan-6-yl)amino)pyrimidine-2-carbonitrile] | > 7.82
10 | N#Cc1nccc(NC2CCN(Cc3ccc(-n4c(-c5cccnc5N)nc5ccc(-c6cn(CF)nn6)nc54)cc3)CC2)n1 [Example 619, 4-((1-(4-(2-(2-Aminopyridin-3-yl)-5-(1-(fluoromethyl)-1H-1,2,3-triazol-4-yl)-3H-imidazo[4,5-b]pyridin-3-yl)benzyl)piperidin-4-yl)amino)pyrimidine-2-carbonitrile] | > 7.82
11 | N#Cc1ccnc(NC2CCN(Cc3ccc(-n4c(-c5cccnc5N)nc5ccc(-c6cccc(F)c6)nc54)cc3)CC2)n1 [Example 358, 2-((1-(4-(2-(2-Aminopyridin-3-yl)-5-(3-fluorophenyl)-3H-imidazo[4,5-b]pyridin-3-yl)benzyl)piperidin-4-yl)amino)pyrimidine-4-carbonitrile] | 7.22 to 7.82
12 | N#Cc1nccc(N2CCC3(CC2)CN(Cc2ccc(-n4c(-c5cccnc5N)nc5ccc(-c6ccc(F)cc6)nc54)cc2)C3)n1 [Example 491, 4-(2-(4-(2-(2-Aminopyridin-3-yl)-5-(4-fluorophenyl)-3H-imidazo[4,5-b]pyridin-3-yl)benzyl)-2,7-diazaspiro[3.5]nonan-7-yl)pyrimidine-2-carbonitrile] | > 7.82

same assay, conditions: competitive tracer displacement in living cells, read-out: AKT1 E17K IC50

Row | Compound | pIC50
13 | CC(=O)Nc1cccc(-c2ccc3nc(-c4cccnc4N)n(-c4ccc(CN5CCN(c6cccc(C#N)n6)CC5)cc4)c3n2)c1 [Example 39, N-(3-(2-(2-Aminopyridin-3-yl)-3-(4-((4-(6-cyanopyridin-2-yl)piperazin-1-yl)methyl)phenyl)-3H-imidazo[4,5-b]pyridin-5-yl)phenyl)acetamide] | 6.22 to 7.22
14 | N#Cc1ccc(N2CCN(Cc3ccc(-n4c(-c5cccnc5N)nc5ccc(-c6ccccc6)nc54)cc3)CC2)cn1 [Example 94, 5-(4-(4-(2-(2-Aminopyridin-3-yl)-5-phenyl-3H-imidazo[4,5-b]pyridin-3-yl)benzyl)piperazin-1-yl)picolinonitrile] | 6.22 to 7.22
15 | C[C@H]1CN(Cc2ccc(-n3c(-c4cccnc4N)nc4ccc(-c5ccccc5)nc43)cc2)C[C@H](C)N1c1cc(C#N)ncn1 [Example 194, 6-((2S,6S)-4-(4-(2-(2-Aminopyridin-3-yl)-5-phenyl-3H-imidazo[4,5-b]pyridin-3-yl)benzyl)-2,6-dimethylpiperazin-1-yl)pyrimidine-4-carbonitrile] | 6.22 to 7.22
16 | C[C@@H]1CN(Cc2ccc(-n3c(-c4cccnc4N)nc4ccc(-c5ccccc5)nc43)cc2)C[C@@H](C)N1c1nccc(C#N)n1 [Example 196, 2-((2R,6R)-4-(4-(2-(2-aminopyridin-3-yl)-5-phenyl-3H-imidazo[4,5-b]pyridin-3-yl)benzyl)-2,6-dimethylpiperazin-1-yl)pyrimidine-4-carbonitrile] | 6.22 to 7.22
17 | N#Cc1nc2cc(C(=O)NC3CCN(Cc4ccc(-n5c(-c6cccnc6N)nc6ccc(-c7ccccc7)nc65)cc4)CC3)ccc2s1 [Example 185, N-(1-(4-(2-(2-aminopyridin-3-yl)-5-phenyl-3H-imidazo[4,5-b]pyridin-3-yl)benzyl)piperidin-4-yl)-2-cyanobenzo[d]thiazole-5-carboxamide] | > 7.82
18 | N#Cc1ccnc(N2CCN(Cc3ccc(-n4c(-c5cccnc5N)nc5ccc(-c6ccccc6)nc54)cc3)CC2)n1 [Example 68, 2-(4-(4-(2-(2-Aminopyridin-3-yl)-5-phenyl-3H-imidazo[4,5-b]pyridin-3-yl)benzyl)piperazin-1-yl)pyrimidine-4-carbonitrile] | > 7.82
19 | N#Cc1nc(C(=O)N2CCN(Cc3ccc(-n4c(-c5cccnc5N)nc5ccc(-c6ccccc6)nc54)cc3)CC2)cs1 [Example 247, 4-(4-(4-(2-(2-Aminopyridin-3-yl)-5-phenyl-3H-imidazo[4,5-b]pyridin-3-yl)benzyl)piperazine-1-carbonyl)thiazole-2-carbonitrile] | > 7.82
20 | N#Cc1ncnc(N2CCCN(Cc3ccc(-n4c(-c5cccnc5N)nc5ccc(-c6ccccc6)nc54)cc3)CC2)n1 [Example 250, 4-(4-(4-(2-(2-Aminopyridin-3-yl)-5-phenyl-3H-imidazo[4,5-b]pyridin-3-yl)benzyl)-1,4-diazepan-1-yl)-1,3,5-triazine-2-carbonitrile] | 7.22 to 7.82
21 | N#Cc1cc(N2CCN(Cc3ccc(-n4c(-c5cccnc5N)nc5ccc(C6CC6)nc54)cc3)CC2)ncn1 [Example 290, 6-(4-(4-(2-(2-Aminopyridin-3-yl)-5-cyclopropyl-3H-imidazo[4,5-b]pyridin-3-yl)benzyl)piperazin-1-yl)pyrimidine-4-carbonitrile] | 7.22 to 7.82
22 | N#Cc1ncc(N2CCN(Cc3ccc(-n4c(-c5cccnc5N)nc5ccc(-c6ccccc6)nc54)cc3)CC2)cn1 [Example 97, 5-(4-(4-(2-(2-aminopyridin-3-yl)-5-phenyl-3H-imidazo[4,5-b]pyridin-3-yl)benzyl)piperazin-1-yl)pyrimidine-2-carbonitrile] | 7.22 to 7.82
23 | C[C@H]1CN(Cc2ccc(-n3c(-c4cccnc4N)nc4ccc(-c5ccccc5)nc43)cc2)C[C@H](C)N1c1ccnc(C#N)n1 [Example 192, 4-((2S,6S)-4-(4-(2-(2-Aminopyridin-3-yl)-5-phenyl-3H-imidazo[4,5-b]pyridin-3-yl)benzyl)-2,6-dimethylpiperazin-1-yl)pyrimidine-2-carbonitrile] | 7.22 to 7.82
24 | N#Cc1nccc(NC2CCN(Cc3ccc(-n4c(-c5cccnc5N)nc5ccc(-c6ccc(Cl)cc6)nc54)cc3)CC2)n1 [Example 308, 4-((1-(4-(2-(2-Aminopyridin-3-yl)-5-(4-chlorophenyl)-3H-imidazo[4,5-b]pyridin-3-yl)benzyl)piperidin-4-yl)amino)pyrimidine-2-carbonitrile] | > 7.82
25 | N#Cc1cnccc1C(=O)NC1CCN(Cc2ccc(-n3c(-c4cccnc4N)nc4ccc(-c5ccccc5)nc43)cc2)CC1 [Example 59, N-(1-(4-(2-(2-Aminopyridin-3-yl)-5-phenyl-3H-imidazo[4,5-b]pyridin-3-yl)benzyl)piperidin-4-yl)-3-cyanoisonicotinamide] | 7.22 to 7.82
26 | N#Cc1cc(N2C[C@H]3C[C@@H]2CN3Cc2ccc(-n3c(-c4cccnc4N)nc4ccc(-c5ccccc5)nc43)cc2)ncn1 [Example 218, 6-((1R,4R)-5-(4-(2-(2-Aminopyridin-3-yl)-5-phenyl-3H-imidazo[4,5-b]pyridin-3-yl)benzyl)-2,5-diazabicyclo[2.2.1]heptan-2-yl)pyrimidine-4-carbonitrile] | 7.22 to 7.82
